Laboratory results: the supplement of paper PMC10307832

How the values were obtained:
Experiment in all cases: relative viability (nuclei count vs DMSO), 5 days (fraction); higher = more cells survive
Cediranib + Luminespib = compound: COc1cc2c(Oc3ccc4[nH]c(C)cc4c3F)ncnc2cc1OCCCN1CCCC1 [Cediranib] + CCNC(=O)c1noc(-c2cc(C(C)C)c(O)cc2O)c1-c1ccc(CN2CCOCC2)cc1 [Luminespib] (partner 0.01 µM)
Summary of the method: (§1)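 Relative viability was taken as the ratio of nuclei in treated wells to nuclei in vehicle wells. Lung cancer cell lines in 1536-well plates received compounds by pin tool one day after seeding, either one drug alone or a fixed anchor-drug dose plus five library-drug doses (not always all listed) in √10 steps. Nuclei were counted on 4× images after 5 days of treatment, and values are medians of duplicate plates.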

Decitabine + Palbociclib = compound: Nc1ncn([C@H]2C[C@H](O)[C@@H](CO)O2)c(=O)n1 [Decitabine] + CC(=O)c1c(C)c2cnc(Nc3ccc(N4CCNCC4)cn3)nc2n(C2CCCC2)c1=O [Palbociclib] (partner 0.5 µM)
Summary of the method: as §1

Decitabine + Foretinib = compound: Nc1ncn([C@H]2C[C@H](O)[C@@H](CO)O2)c(=O)n1 [Decitabine] + COc1cc2c(Oc3ccc(NC(=O)C4(C(=O)Nc5ccc(F)cc5)CC4)cc3F)ccnc2cc1OCCCN1CCOCC1 [Foretinib] (partner 0.25 µM)
Summary of the method: as §1

Cediranib + AZD7762 = compound: COc1cc2c(Oc3ccc4[nH]c(C)cc4c3F)ncnc2cc1OCCCN1CCCC1 [Cediranib] + NC(=O)Nc1cc(-c2cccc(F)c2)sc1C(=O)N[C@H]1CCCNC1 [AZD7762] (partner 0.2 µM)
Summary of the method: as §1

| Cell Line | relative viability (Cediranib + Luminespib; first compound 0.04 µM) | relative viability (Cediranib + Luminespib; first compound 0.1265 µM) | relative viability (Cediranib + Luminespib; first compound 0.4 µM) | relative viability (Cediranib + Luminespib; first compound 1.265 µM) | relative viability (Cediranib + Luminespib; first compound 4 µM) | relative viability (Decitabine + Palbociclib; first compound 0.04 µM) | relative viability (Decitabine + Palbociclib; first compound 0.1265 µM) | relative viability (Decitabine + Palbociclib; first compound 0.4 µM) | relative viability (Decitabine + Palbociclib; first compound 1.265 µM) | relative viability (Decitabine + Palbociclib; first compound 4 µM) | relative viability (Decitabine + Foretinib; first compound 0.04 µM) | relative viability (Decitabine + Foretinib; first compound 0.1265 µM) | relative viability (Decitabine + Foretinib; first compound 0.4 µM) | relative viability (Decitabine + Foretinib; first compound 1.265 µM) | relative viability (Decitabine + Foretinib; first compound 4 µM) | relative viability (Cediranib + AZD7762; first compound 0.04 µM) | relative viability (Cediranib + AZD7762; first compound 0.4 µM) | relative viability (Cediranib + AZD7762; first compound 1.265 µM) | relative viability (Cediranib + AZD7762; first compound 4 µM) | relative viability (Cediranib + AZD7762; first compound 0.1265 µM) |
| --- | --- | --- | --- | --- | --- | --- | --- | --- | --- | --- | --- | --- | --- | --- | --- | --- | --- | --- | --- | --- |
| COR-L 105 | 0.706 | 0.726 | 0.731 | 0.864 | 0.68 | 0.45 | 0.474 | 0.397 | 0.408 | 0.387 | 1.2 | 0.98 | 0.881 | 0.633 | 0.554 |  |  |  |  |  |
| LCLC-97TM1 | 0.918 | 0.776 | 0.787 | 0.771 | 0.842 | 0.207 | 0.197 | 0.171 | 0.152 | 0.22 | 0.583 | 0.728 | 0.418 | 0.256 | 0.177 | 0.418 | 0.329 | 0.244 | 0.287 |  |
| NCI-H520 | 0.251 | 0.262 | 0.188 | 0.2 | 0.308 | 0.22 | 0.23 | 0.204 | 0.17 | 0.184 | 0.732 | 0.691 | 0.584 | 0.387 | 0.343 |  |  |  |  |  |
| NCI-H1993 | 0.637 | 0.901 | 0.906 | 0.851 | 0.597 | 0.646 | 0.589 | 0.645 | 0.503 | 0.583 | 0.746 | 0.693 | 0.824 | 0.742 | 0.771 |  | 0.819 | 0.588 | 0.755 | 0.923 |
| NCI-H1437 | 1.15 | 1.05 | 1.04 | 1.1 | 1.13 | 0.343 | 0.321 | 0.247 | 0.265 | 0.28 | 1.11 | 0.881 | 0.657 | 0.468 | 0.391 | 1.12 | 1.15 | 1.07 | 0.998 | 1.1 |
| NCI-H522 | 1.13 |  | 1.17 | 1.03 | 1.02 | 0.97 | 0.803 | 0.817 | 0.634 | 0.533 |  |  |  |  |  | 0.84 | 0.887 | 0.729 | 0.744 | 0.643 |
| NCI-H1563 | 0.513 | 0.456 | 0.541 | 0.559 | 0.601 |  |  |  |  |  | 0.984 | 0.886 | 1.14 | 0.949 | 0.917 |  |  |  |  |  |
| NCI-H1703 |  |  |  |  |  |  |  |  |  |  | 0.371 | 0.341 | 0.455 | 0.377 | 0.271 | 0.116 | 0.135 | 0.122 | 0.123 |  |
| NCI-H661 | 0.978 | 0.842 | 0.913 | 0.908 | 0.982 | 0.489 | 0.468 | 0.417 | 0.348 | 0.361 | 1.02 | 0.966 | 0.777 | 0.6 | 0.554 |  |  |  |  |  |
| SK-MES-1 | 0.797 | 0.869 | 0.9 | 0.833 | 0.86 | 0.315 | 0.304 | 0.303 | 0.277 | 0.319 | 0.688 | 0.758 | 0.697 | 0.407 | 0.309 |  |  |  |  |  |
| HCC-78 |  |  |  |  |  | 0.483 | 0.554 | 0.487 | 0.436 | 0.423 | 0.648 | 0.58 | 0.588 | 0.455 | 0.433 | 0.719 | 0.659 | 0.532 | 0.645 | 1.01 |
| NCI-H1792 | 0.429 | 0.644 | 0.479 | 0.538 | 0.508 | 0.753 | 0.76 | 0.646 | 0.595 | 0.512 |  |  |  |  |  |  | 0.554 | 0.658 | 0.838 | 0.922 |
| NCI-H1648 |  |  |  |  |  | 0.275 | 0.246 | 0.296 | 0.287 | 0.31 |  |  |  |  |  | 0.586 | 0.636 | 0.514 | 0.72 | 0.533 |
| EBC-1 |  |  |  |  |  |  |  |  |  |  | 0.0865 | 0.0957 | 0.106 | 0.0836 | 0.0866 |  |  |  |  |  |
| NCI-H1650 | 0.192 | 0.161 | 0.179 | 0.197 | 0.173 | 0.262 | 0.353 | 0.248 | 0.255 | 0.293 | 0.903 | 0.855 | 0.553 | 0.512 | 0.301 |  |  |  |  |  |
| SW 1573 | 0.347 | 0.324 | 0.256 | 0.21 | 0.24 | 0.429 | 0.407 | 0.367 | 0.228 | 0.251 | 0.769 | 0.891 | 0.793 | 0.591 | 0.49 |  |  |  |  |  |
| NCI-H1299 |  |  |  |  |  |  |  |  |  |  | 1.09 | 1.13 | 1.03 | 1.03 | 1.01 |  |  |  |  |  |
| SK-LU-1 | 0.203 | 0.195 | 0.183 | 0.203 | 0.194 | 0.39 | 0.342 | 0.325 | 0.345 | 0.303 | 0.686 | 0.674 | 0.376 | 0.356 | 0.356 |  |  |  |  |  |
| COR-L23 | 0.778 | 0.768 | 0.58 | 0.571 | 0.626 | 0.212 | 0.237 | 0.196 | 0.145 | 0.153 | 0.597 | 0.605 | 0.473 | 0.353 | 0.246 |  |  |  |  |  |
| A549 |  |  |  |  |  |  |  |  |  |  | 0.719 | 0.634 | 0.448 | 0.143 | 0.0978 |  |  |  |  |  |
| NCI-H2023 | 0.844 | 0.639 | 0.732 | 0.405 | 0.53 | 0.329 | 0.36 | 0.287 | 0.23 | 0.157 | 0.649 | 0.617 | 0.369 | 0.265 | 0.189 |  |  |  |  |  |
| NCI-H596 | 0.709 | 1.06 | 0.98 |  | 0.955 |  |  |  |  |  | 0.764 | 0.819 |  | 0.625 | 0.582 | 1.21 | 0.853 | 0.969 | 1.2 | 1.31 |
| IA-LM |  |  |  |  |  |  |  |  |  |  | 0.543 | 0.502 | 0.282 | 0.204 | 0.108 |  |  |  |  |  |
| NCI-H2009 | 1.09 | 0.97 | 0.995 | 1.12 | 1.05 | 0.43 | 0.231 | 0.116 | 0.193 | 0.275 | 1.21 | 0.808 | 0.627 | 0.494 | 0.438 |  |  |  |  |  |
